Reference: ChEMBL document CHEMBL1201862, “PubChem BioAssay data set” (2004)
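Growth conditions: 96-well plates. Treatment: test compound, 48 hours, 5 concentrations. Analysis: linear interpolation between bracketing concentrations; unreached endpoints set to highest concentration. The concentration for 50% growth inhibition is given as GI50.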 The source made the active and inactive calls. Cut-off read from the data, not from the text of the source: active = GI50 up to about 1.1 µM and inactive = higher.

Experiments:
Assay in all cases: NCI-60 cell line screen, 48 h
CAKI-1 = system: CAKI-1
UACC-62 = system: UACC-62
NCI-H460 = system: NCI-H460
SR = system: SR
OVCAR-8 = system: OVCAR-8
NCI-H226 = system: NCI-H226
HT-29 = system: HT-29
RXF 393 = system: RXF 393
MOLT-4 = system: MOLT-4
SK-MEL-5 = system: SK-MEL-5
Malme-3M = system: Malme-3M
MDA-N = system: MDA-N
MCF7 = system: MCF7
MDA-MB-231 = system: MDA-MB-231
RPMI-8226 = system: RPMI-8226
OVCAR-5 = system: OVCAR-5
BT-549 = system: BT-549
SN12C = system: SN12C
HCT-116 = system: HCT-116
T47D = system: T47D
SK-OV-3 = system: SK-OV-3
SF-268 = system: SF-268
DU-145 = system: DU-145
SF-295 = system: SF-295
TK-10 = system: TK-10
HCT-15 = system: HCT-15
MDA-MB-435 = system: MDA-MB-435
786-0 = system: 786-0
EKVX = system: EKVX
UO-31 = system: UO-31
SW-620 = system: SW-620
SK-MEL-2 = system: SK-MEL-2
A498 = system: A498
KM12 = system: KM12
HCC 2998 = system: HCC 2998
K562 = system: K562
LOX IMVI = system: LOX IMVI
M14 = system: M14
COLO 205 = system: COLO 205
ACHN = system: ACHN
NCI/ADR-RES = system: NCI/ADR-RES
HOP-92 = system: HOP-92
SNB-75 = system: SNB-75
NCI-H522 = system: NCI-H522
A549 = system: A549
HOP-62 = system: HOP-62
OVCAR-3 = system: OVCAR-3
Hs-578T = system: Hs-578T
UACC-257 = system: UACC-257
U-251 = system: U-251
IGROV-1 = system: IGROV-1
PC-3 = system: PC-3
SNB-19 = system: SNB-19
OVCAR-4 = system: OVCAR-4
NCI-H23 = system: NCI-H23
SK-MEL-28 = system: SK-MEL-28
CCRF-CEM = system: CCRF-CEM
HL-60 = system: HL-60
SF-539 = system: SF-539

SMILES: c1ccc2sc(C3(N4CCCCC4)CCCCCC3)cc2c1
- GI50 (CAKI-1): 26.7 µM (inactive)
- GI50 (UACC-62): 25.4 µM (inactive)
- GI50 (NCI-H460): 17.1 µM (inactive)
- GI50 (SR): 19.1 µM (inactive)
- GI50 (OVCAR-8): 26.1 µM (inactive)
- GI50 (NCI-H226): 17.3 µM (inactive)
- GI50 (HT-29): 14.8 µM (inactive)
- GI50 (RXF 393): 14.5 µM (inactive)
- GI50 (MOLT-4): 15.2 µM (inactive)
- GI50 (SK-MEL-5): 16.6 µM (inactive)
- GI50 (Malme-3M): 24 µM (inactive)
- GI50 (MDA-N): 34.9 µM (inactive)
- GI50 (MCF7): 17.8 µM (inactive)
- GI50 (MDA-MB-231): 23 µM (inactive)
- GI50 (RPMI-8226): 14.2 µM (inactive)
- GI50 (OVCAR-5): 18.8 µM (inactive)
- GI50 (BT-549): 24.7 µM (inactive)
- GI50 (SN12C): 20.4 µM (inactive)
- GI50 (HCT-116): 15.5 µM (inactive)
- GI50 (T47D): 14.5 µM (inactive)
- GI50 (SK-OV-3): 25.3 µM (inactive)
- GI50 (SF-268): 25.4 µM (inactive)
- GI50 (DU-145): 31.1 µM (inactive)
- GI50 (SF-295): 22.4 µM (inactive)
- GI50 (TK-10): 25.1 µM (inactive)
- GI50 (HCT-15): 17.3 µM
- GI50 (MDA-MB-435): 22.3 µM (inactive)
- GI50 (786-0): 20.9 µM (inactive)
- GI50 (EKVX): 22.9 µM (inactive)
- GI50 (UO-31): 25.1 µM (inactive)
- GI50 (SW-620): 12 µM (inactive)
- GI50 (SK-MEL-2): 25.9 µM (inactive)
- GI50 (A498): 15.2 µM (inactive)
- GI50 (KM12): 17.1 µM (inactive)
- GI50 (HCC 2998): 13.4 µM (inactive)
- GI50 (K562): 16.4 µM (inactive)
- GI50 (LOX IMVI): 18.5 µM (inactive)
- GI50 (M14): 27 µM (inactive)
- GI50 (COLO 205): 16.6 µM (inactive)
- GI50 (ACHN): 17.6 µM (inactive)
- GI50 (NCI/ADR-RES): 20.5 µM (inactive)
- GI50 (HOP-92): 22.1 µM (inactive)
- GI50 (SNB-75): 15.2 µM (inactive)
- GI50 (NCI-H522): 17.5 µM (inactive)
- GI50 (A549): 30 µM (inactive)
- GI50 (HOP-62): 28.8 µM (inactive)
- GI50 (OVCAR-3): 19.4 µM (inactive)
- GI50 (Hs-578T): 18.9 µM (inactive)
- GI50 (UACC-257): 18.8 µM (inactive)
- GI50 (U-251): 17.3 µM (inactive)
- GI50 (IGROV-1): 23.4 µM (inactive)
- GI50 (PC-3): 15.5 µM (inactive)
- GI50 (SNB-19): 20.8 µM (inactive)
- GI50 (OVCAR-4): 25.8 µM (inactive)
- GI50 (NCI-H23): 20.5 µM (inactive)
- GI50 (SK-MEL-28): 4.62 µM (inactive)
- GI50 (CCRF-CEM): 13.2 µM (inactive)
- GI50 (HL-60): 2.1 µM (inactive)
- GI50 (SF-539): 21 µM (inactive)

SMILES: C[C@H]1[C@H](C)CC[C@]2(C(=O)OC3OC(CO)C(O)C(O)C3O)CC[C@]3(C)C(=CC[C@@H]4[C@@]5(C)C[C@@H](O)[C@@H]6OC(=O)c7cc(O)c(O)c(O)c7-c7c(cc(O)c(O)c7O)C(=O)OC[C@@]6(CO)[C@@H]5CC[C@]43C)[C@H]12 (stereo partly drawn)
- GI50 (CAKI-1): 47.8 µM (inactive)
- GI50 (UACC-62): > 87.7 µM (inactive)
- GI50 (NCI-H460): 98.6 µM (inactive)
- GI50 (SR): 38.1 µM (inactive)
- GI50 (OVCAR-8): 57.1 µM (inactive)
- GI50 (NCI-H226): > 100 µM (inactive)
- GI50 (HT-29): 25.4 µM (inactive)
- GI50 (RXF 393): > 100 µM (inactive)
- GI50 (MOLT-4): 39.5 µM (inactive)
- GI50 (SK-MEL-5): > 84.9 µM (inactive)
- GI50 (Malme-3M): > 95.5 µM (inactive)
- GI50 (MDA-N): 21.5 µM (inactive)
- GI50 (MCF7): 18.6 µM (inactive)
- GI50 (MDA-MB-231): 19.5 µM (inactive)
- GI50 (RPMI-8226): 98.2 µM (inactive)
- GI50 (OVCAR-5): > 75.3 µM (inactive)
- GI50 (BT-549): > 100 µM (inactive)
- GI50 (SN12C): 59.7 µM (inactive)
- GI50 (HCT-116): 46.7 µM (inactive)
- GI50 (T47D): > 100 µM (inactive)
- GI50 (SK-OV-3): 98.6 µM (inactive)
- GI50 (SF-268): > 100 µM (inactive)
- GI50 (DU-145): > 100 µM (inactive)
- GI50 (SF-295): > 100 µM (inactive)
- GI50 (TK-10): > 100 µM (inactive)
- GI50 (HCT-15): 76.7 µM
- GI50 (MDA-MB-435): 19.6 µM (inactive)
- GI50 (786-0): 23.2 µM (inactive)
- GI50 (EKVX): > 100 µM (inactive)
- GI50 (UO-31): 43.1 µM (inactive)
- GI50 (SW-620): 28.6 µM (inactive)
- GI50 (SK-MEL-2): > 100 µM (inactive)
- GI50 (A498): > 100 µM (inactive)
- GI50 (KM12): 58.6 µM (inactive)
- GI50 (HCC 2998): > 100 µM (inactive)
- GI50 (K562): 32.7 µM (inactive)
- GI50 (LOX IMVI): 17.8 µM (inactive)
- GI50 (M14): > 100 µM (inactive)
- GI50 (COLO 205): > 100 µM (inactive)
- GI50 (ACHN): > 100 µM (inactive)
- GI50 (NCI/ADR-RES): > 100 µM (inactive)
- GI50 (HOP-92): > 92.5 µM (inactive)
- GI50 (SNB-75): > 100 µM (inactive)
- GI50 (NCI-H522): > 59.3 µM (inactive)
- GI50 (A549): > 100 µM (inactive)
- GI50 (HOP-62): > 100 µM (inactive)
- GI50 (OVCAR-3): > 46.1 µM (inactive)
- GI50 (Hs-578T): > 100 µM (inactive)
- GI50 (UACC-257): > 100 µM (inactive)
- GI50 (U-251): 60.4 µM (inactive)
- GI50 (IGROV-1): > 100 µM (inactive)
- GI50 (PC-3): > 88.3 µM (inactive)
- GI50 (SNB-19): > 100 µM (inactive)
- GI50 (OVCAR-4): 23.9 µM (inactive)
- GI50 (NCI-H23): > 100 µM (inactive)
- GI50 (SK-MEL-28): > 100 µM (inactive)
- GI50 (CCRF-CEM): 43.5 µM (inactive)
- GI50 (HL-60): 39.2 µM (inactive)
- GI50 (SF-539): > 100 µM (inactive)
